Data as given in patent US11213527B2, “Inhibitory effect of low molecular weight compound on cancer and fibrosis” (NATIONAL UNIVERSITY CORPORATION TOTTORI UNIVERSITY, priority 2014, dated 2022).

Legend:
[1] = test system: colon cancer cells (DLD-1, HCT 116, colo 205); assay: Anti-tumor effect on colon cancer cells (TetraColor ONE); assay type: cell-based; details: 48 hours
Protocol: Colon cancer cells (DLD-1, HCT 116, colo 205) were cultured in a DMEM on a 10-cm cell culture dish (TPP Techno Plastic Products AG, Trasadingen, Switzerland) at 5% CO2, 37° C., and a humidity of 100%. The cells at 70-90% confluency were split and washed with PBS (−). Next, 300 μL of Trypsin/EDTA was added to 2 mL of PBS (−) and the cells were incubated with this solution at 37° C. for 5 min to detach the cells. Then, 5 mL of DMEM was used to recover the cells. The recovered cells were centrifuged at 1000 rpm for 3 min to remove a supernatant. Then the cells were suspended in DMEM at 1:4 and subcultured.
First, 5×10^5 colon cancer cells (DLD-1, HCT 116, or colo 205) were seeded on a 96-well plate (TPP). Forty-eight hours after the low-molecular-weight compound treatment, 100 μL of 10% TetraColor ONE (SEIKAGAKU CORPORATION, Tokyo, Japan) was added and the mixture was then incubated at 37° C. After that, absorbance (at a measurement wavelength of 450 nm/a control wavelength of 600 nm) was measured by using a 96-well microplate reader (TECAN, Zurich, Switzerland).

[2] = test system: fibrosis markers TGFβ, α-SMA, and COL1A1; assay: Real-time PCR of fibrosis markers in LX-2 cells; assay type: cell-based, human; details: compound+TGFβ, with increasing concentration
Protocol: A human liver stellate cell line (LX-2 cells) was maintained and cultured in a DMEM containing 10% FBS. The cells used for experiments were suspended in a DMEM containing 1% FBS and plated. The cell density was at about 2.0×10^5 cell/cm^2.
A real-time PCR was carried out to examine an inhibitory effect of each low-molecular-weight compound on fibrosis. The real-time PCR was conducted under conditions indicated in FIG. 55 and the following sections 9.4.1 to 9.4.2. Note that TGFβ, α-SMA, and COL1A1 are fibrosis markers.
A pre-Mix was prepared by using MilliQ water: 5.2 μL/sample, MgCl2: 0.8 μl/sample, 10 μM primer F: 0.5 μl, 10 μM primer R: 0.5 μl, and LightCycler FastStart DNA Master SYBER Green I (1a+1b): […]/sample. Next, 8 μL of the pre-Mix was pipetted into each well. Then, 2 μL of the sample was added thereto.

liver fibrosis = assay: Liver disease model mice (carbon tetrachloride-induced liver fibrosis); assay type: in vivo, C57BL/6 male mice; details: IC-2 10.6 or 21.2 mg/kg intraperitoneally 3 times a week for 4 weeks, vs vehicle
Protocol: First, 7-week-old C57BL/6 male mice (Japan SLC, Shizuoka, Japan) were subject to 1-week preparatory rearing. Among them, healthy mice were used. The mice were housed in an animal cage at a room temperature of 22±1° C. and a humidity of 50±5% throughout the preparatory rearing and experimental period and were given ad libitum access to food and water.
A microsyringe (ITO CORPORATION, Shizuoka, Japan) was used to intraperitoneally administer carbon tetrachloride (CCl4: Wako Pure Chemical Industries, Ltd., Osaka, Japan) at 0.2 ml/kg, 3 times a week, for 4, 6, or 8 weeks. Carbon tetrachloride was dissolved into cone oil (Wako Pure Chemical Industries, Ltd.) at a concentration of 10%. The resulting solution was used. After this carbon tetrachloride solution was administered for 4 weeks, the mice were divided into a vehicle administration group, a glycyrrhizin administration group, an ICG-001 administration group, and an IC-2 administration group. Then, a microsyringe was used to intraperitoneally administer, 3 times a week for 4 weeks, carbon tetrachloride and a drug solution prepared in accordance with the following process. Note that the carbon tetrachloride and the drug solution were alternately administered with one-day interval.
Glycyrrhizin (TOKYO CHEMICAL INDUSTRY CO., LTD., Tokyo, Japan) was dissolved in physiological saline. The solution was prepared at a concentration of 30 mg/ml while the pH was adjusted to 7.0 with 4 M NaOH liquid. IC-2 and ICG-001 (AdooQ BioScience, California, USA) were each dissolved in a WellSolve (Celeste Corporation, Tokyo, Japan) at a concentration of 40 mg/ml and 10 mg/ml, respectively. Next, the mixture was heated for 10 min in a hot water bath at 60° C. and was then completely dissolved. A 9-fold volume of physiological saline was added to the WellSolve solution in which the above drugs had each been dissolved. […] Note that an IC-2 dosage was determined on the basis of an effective concentration in vitro. […]

**Q.** For `O=C1[C@H](Cc2ccccc2)N2C(=O)CCN(C(=O)NCc3ccccc3)[C@H]2CN1Cc1cccc2ccccc12` [IC-2], which “inhibitory effect on proliferation of the colon cancer cells” value [1] is on record?
**A.** Its value is “exerted an inhibitory effect on proliferation”.

**Q.** And the “level of expression of COL1A1” value ([2]; 24 or 48 hours)?
**A.** The value was “decreased”.

**Q.** And the “level of expression of α-SMA” value ([2]; 24 or 48 hours)?
**A.** The value was “remarkably reduced”.

**Q.** What about the “level of expression of TGFβ” value ([2]; 24 hours) of the same molecule?
**A.** Its value is “decreased”.

**Q.** What about the “level of expression of TGFβ” value ([2]; 48 hours) of the same molecule?
**A.** The value was “decreased”.

**Q.** What about the “fibrosis area (Sirius red staining)” value (liver fibrosis) of the same molecule?
**A.** Its value is “a decrease in the fibrosis area was detected”.

**Q.** And the content of hydroxyproline (liver fibrosis; glycyrrhizin 150 mg/kg)?
**A.** Its content of hydroxyproline is “a large decrease was observed”.
